Data published in US8912336B2, “Aryl and heteroaryl sulfones as mGluR4 allosteric potentiators, compositions, and methods of treating neurological dysfunction” (Vanderbilt University, priority 2009, dated 2014).

Molecular target: T1, human mGluR4 (Homo sapiens, UniProt Q14833)
T1 construct: expressed in transfected cells; host or cells: Chinese Hamster Ovary (CHO) cells
Experiment: Potentiation of human mGluR4 in transfected CHO cells, Ca2+-sensitive fluorescent dye, EC20 agonist
Assay type: cell-based
Settings: values in E-notation, unit inferred, read-out: hEC50
Protocol: The disclosed compounds and compositions can be evaluated for their ability to act as a potentiator of metabotropic glutamate receptor activity, in particular mGluR4 activity, by any suitable known methodology known in the art. For example, Chinese Hamster Ovary (CHO) cells transfected with human mGluR4 or HEK cells co-transfected with rat mGluR4 and the G-protein regulated Inwardly Rectifying Potassium channel (GIRK) were plated in clear bottom assay plates for assay in a Hamamatsu FDSS Fluorometric Plate Reader. The cells were loaded with either a Ca2+-sensitive fluorescent dye or the thallium responsive dye and the plates were washed and placed into a suitable kinetic plate reader. For human mGluR4 assays, a fluorescence baseline was established for 3-5 seconds, the disclosed compounds were then added to the cells, and the response in cells was measured. Approximately two and a half minutes later, a concentration of mGluR4 orthosteric agonist (e.g. glutamate or L-AP4) eliciting approximately 20% (EC20) of the maximal agonist response was added to the cells, and the response was measured. Two minutes later, a concentration of mGluR4 agonist (e.g. glutamate or L-AP4) eliciting 80% (EC80) of the maximal agonist response was added to the cells, and the response was measured. For rat mGluR4/GIRK experiments, a baseline was established for approximately five seconds, disclosed compounds were added, and either an EC20 or EC80 concentration of agonist was added approximately two and one half minutes later.
The above described assay operated in two modes. In the first mode, a range of concentrations of the disclosed compounds are added to cells, followed by a single fixed concentration of agonist. If the compound acts as a potentiatior, an EC50 value for potentiation and a maximum extent of potentiation by the compound at this concentration of agonist is determined by non-linear curve fitting. If the compound acts as a noncompetitive antagonist, an IC50 value is determined by non-linear curve fitting. In the second mode, several fixed concentrations of the disclosed compounds are added to various wells on a plate, followed by a range in concentrations of agonist for each concentration of disclosed compound. The EC50 values for the agonist at each concentration of compound are determined by non-linear curve fitting. A decrease in the EC50 value of the agonist with increasing concentrations of the sample compound (a leftward shift of the agonist concentration-response curve) is an indication of the degree of mGluR4 potentiation at a given concentration of the sample compound. A decrease in the maximal response of the agonist with increasing concentrations of the sample compounds, with or without a rightward shift in agonist potency, is an indication of the degree of noncompetitive antagonism at mGluR4. The second mode also indicates whether the sample compounds also affect the maximum response to mGluR4 to agonists.

T1 sequence (Q14833 33-912): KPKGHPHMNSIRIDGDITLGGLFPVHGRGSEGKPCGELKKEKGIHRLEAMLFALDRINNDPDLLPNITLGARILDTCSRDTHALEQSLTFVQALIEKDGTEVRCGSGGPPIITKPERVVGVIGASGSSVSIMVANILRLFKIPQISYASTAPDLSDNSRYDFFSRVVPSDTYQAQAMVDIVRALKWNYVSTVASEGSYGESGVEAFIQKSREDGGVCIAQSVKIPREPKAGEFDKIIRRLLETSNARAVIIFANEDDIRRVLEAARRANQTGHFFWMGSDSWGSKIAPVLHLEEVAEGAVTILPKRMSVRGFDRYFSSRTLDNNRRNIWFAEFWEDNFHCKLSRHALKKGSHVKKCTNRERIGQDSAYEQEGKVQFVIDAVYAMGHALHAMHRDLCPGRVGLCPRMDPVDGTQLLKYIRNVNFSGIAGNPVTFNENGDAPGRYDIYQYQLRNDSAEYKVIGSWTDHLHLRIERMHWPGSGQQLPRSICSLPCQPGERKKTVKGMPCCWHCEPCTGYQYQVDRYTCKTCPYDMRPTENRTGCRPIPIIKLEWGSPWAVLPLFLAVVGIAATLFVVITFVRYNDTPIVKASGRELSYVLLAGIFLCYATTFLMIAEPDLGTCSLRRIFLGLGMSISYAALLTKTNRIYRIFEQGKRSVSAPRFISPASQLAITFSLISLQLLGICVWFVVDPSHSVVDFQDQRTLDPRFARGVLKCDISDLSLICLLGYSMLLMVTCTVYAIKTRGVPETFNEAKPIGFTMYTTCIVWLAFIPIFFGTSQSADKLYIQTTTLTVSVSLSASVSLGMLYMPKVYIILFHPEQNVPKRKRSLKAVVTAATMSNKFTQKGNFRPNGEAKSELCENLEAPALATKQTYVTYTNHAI

Compound | EC50 [µM]
O=C(Nc1ccc(S(=O)(=O)Cc2ccccc2Cl)cc1)c1ccccn1 [Example 27, N-(4-((2-chlorobenzyl)sulfonyl)phenyl)picolinamide] | 0.237
O=S(=O)(Cc1c(F)cccc1F)c1ccc2[nH]c(-c3ccccn3)nc2c1 [Example 9, 5-((2,6-difluorobenzyl)sulfonyl)-2-(pyridin-2-yl)-1H-benzo[d]imidazole] | 0.155
O=S(=O)(Cc1ccccc1Cl)c1ccc2[nH]c(-c3cccc(F)n3)nc2c1 [Example 15, 5-((2-chlorobenzyl)sulfonyl)-2-(6-fluoropyridin-2-yl)-1H-benzo[d]imidazole] | 0.927
O=S(=O)(Cc1cc(F)c(F)cc1F)c1ccc2[nH]c(-c3ccccn3)nc2c1 [Example 10, 2-(pyridin-2-yl)-5-((2,4,5-trifluorobenzyl)sulfonyl)-1H-benzo[d]imidazole] | 0.462
O=S(=O)(Cc1ccc(Cl)cc1F)c1ccc2[nH]c(-c3ccccn3)nc2c1 [Example 19, 5-((4-chloro-2-fluorobenzyl)sulfonyl)-2-(pyridin-2-yl)-1H-benzo[d]imidazole] | 0.0823
O=S(=O)(Cc1ccccc1Cl)c1ccc2[nH]c(-c3ncccc3F)nc2c1 [Example 16, 5-((2-chlorobenzyl)sulfonyl)-2-(3-fluoropyridin-2-yl)-1H-benzo[d]imidazole] | 0.221
O=S(=O)(Cc1ccccc1Cl)c1cc2nc(-c3ccccn3)[nH]c2cc1Cl [Example 5, 6-chloro-5-((2-chlorobenzyl)sulfonyl)-2-(pyridin-2-yl)-1H-benzo[d]imidazole] | 0.35
O=S(=O)(Cc1ccc(Cl)cc1Cl)c1ccc2[nH]c(-c3ccccn3)nc2c1 [Example 6, 5-((2,4-dichlorobenzyl)sulfonyl)-2-(pyridin-2-yl)-1H-benzo[d]imidazole] | 0.0568
Clc1ccccc1CSc1ccc2[nH]c(-c3ccccn3)nc2c1 [Example 1, 5-(2-Chlorobenzylthio)-2-(pyridin-2-yl)-1H-benzo[d]imidazole] | 2.48
O=S(=O)(Cc1ccccc1F)c1ccc2[nH]c(-c3ccccn3)nc2c1 [Example 4, 5-((2-fluorobenzyl)sulfonyl)-2-(pyridin-2-yl)-1H-benzo[d]imidazole] | 0.33
O=S(=O)(Cc1ccc(Cl)cc1F)c1ccc2[nH]c(-c3cccc[n+]3O)nc2c1 [Example 18, 2-(5-((4-chloro-2-fluorobenzyl)sulfonyl)-1H-benzo[d]imidazol-2-yl)-1-hydroxypyridin-1-ium] | 0.272
O=S(=O)(Cc1ccccc1Cl)c1ccc2[nH]c(-c3nccs3)nc2c1 [Example 12, 2-(5-((2-chlorobenzyl)sulfonyl)-1H-benzo[d]imidazol-2-yl)thiazole] | 1.45
O=S(=O)(Cc1ccccc1Cl)c1ccc2[nH]c(-c3ncc(F)cc3F)nc2c1 [Example 14, 5-((2-chlorobenzyl)sulfonyl)-2-(3,5-difluoropyridin-2-yl)-1H-benzo[d]imidazole] | 0.45
O=S(=O)(Cc1ccccc1Cl)c1ccc2[nH]c(-c3cccc(Cl)n3)nc2c1 [Example 11, 5-((2-chlorobenzyl)sulfonyl)-2-(6-chloropyridin-2-yl)-1H-benzo[d]imidazole] | 0.0754
O=S(=O)(Cc1ccccc1Cl)c1ccc2[nH]c(-c3cscn3)nc2c1 [Example 13, 4-(5-((2-chlorobenzyl)sulfonyl)-1H-benzo[d]imidazol-2-yl)thiazole] | 1.84
O=S(=O)(Cc1ccc(F)cc1F)c1ccc2[nH]c(-c3ccccn3)nc2c1 [Example 8, 5-((2,4-difluorobenzyl)sulfonyl)-2-(pyridin-2-yl)-1H-benzo[d]imidazole] | 0.209
O=S(=O)(Cc1ccccc1Cl)c1ccc2[nH]c(-c3ccccn3)nc2c1 [Example 2, 5-(2-Chlorobenzylsulfonyl)-2-(pyridin-2-yl)-1H-benzo[d]imidazole] | 0.421
Fc1ccccc1CSc1ccc2[nH]c(-c3ccccn3)nc2c1 [Example 3, 5-((2-fluorobenzyl)thio)-2-(pyridin-2-yl)-1H-benzo[d]imidazole] | 2.45
[O-][S+](Cc1ccccc1Cl)c1cc2nc(-c3ccccn3)[nH]c2cc1Cl (stereo not shown) [Example 17, 6-chloro-5-((2-chlorobenzyl)sulfinyl)-2-(pyridin-2-yl)-1H-benzo[d]imidazole] | 2.41
O=S(=O)(Cc1cc(F)ccc1F)c1ccc2[nH]c(-c3ccccn3)nc2c1 [Example 7, 5-((2,5-difluorobenzyl)sulfonyl)-2-(pyridin-2-yl)-1H-benzo[d]imidazole] | 0.434

Now from value to compound:

EC50 [µM] | Compound
0.73 | O=C(Nc1ccc(S(=O)(=O)Cc2ccccc2Cl)cc1)c1ncccc1F [Example 31, N-(4-((2-chlorobenzyl)sulfonyl)phenyl)-3-fluoropicolinamide]
0.112 | O=S(=O)(Cc1c(F)cccc1Cl)c1cc2nc(-c3ccccn3)[nH]c2cc1Cl [Example 24, 6-chloro-5-((2-chloro-6-fluorobenzyl)sulfonyl)-2-(pyridin-2-yl)-1H-benzo[d]imidazole]
0.341 | O=S(=O)(Cc1ccccc1Cl)c1cc2nc(-c3ccccn3)[nH]c2cc1F [Example 25, 5-((2-chlorobenzyl)sulfonyl)-6-fluoro-2-(pyridin-2-yl)-1H-benzo[d]imidazole]
0.427 | O=C(Nc1ccc(S(=O)(=O)Cc2ccccc2Cl)cc1)c1ccco1 [Example 28, N-(4-((2-chlorobenzyl)sulfonyl)phenyl)furan-2-carboxamide]
1.06 | O=S(=O)(Cc1cccc(Cl)c1F)c1ccc2[nH]c(-c3cccc[n+]3O)nc2c1 [Example 20, 2-(5-((3-chloro-2-fluorobenzyl)sulfonyl)-1H-benzo[d]imidazol-2-yl)-1-hydroxypyridin-1-ium]
0.446 | O=S(=O)(Cc1ccc(Cl)cc1F)c1cc2nc(-c3ccccn3)[nH]c2cc1Cl [Example 26, 6-chloro-5-((4-chloro-2-fluorobenzyl)sulfonyl)-2-(pyridin-2-yl)-1H-benzo[d]imidazole]
0.194 | O=S(=O)(Cc1cccc(Cl)c1F)c1ccc2[nH]c(-c3ccccn3)nc2c1 [Example 21, 5-((3-chloro-2-fluorobenzyl)sulfonyl)-2-(pyridin-2-yl)-1H-benzo[d]imidazole]
1.52 | O=S(=O)(Cc1ccc(Cl)cc1Cl)c1cc2nc(-c3ccccn3)[nH]c2cc1Cl [Example 23, 6-chloro-5-((2,4-dichlorobenzyl)sulfonyl)-2-(pyridin-2-yl)-1H-benzo[d]imidazole]
5.4 | Cc1cccc(C(=O)Nc2ccc(S(=O)(=O)Cc3ccccc3Cl)cc2)n1 [Example 32, N-(4-((2-chlorobenzyl)sulfonyl)phenyl)-6-methylpicolinamide]
0.0553 | O=S(=O)(Cc1c(F)cccc1Cl)c1ccc2[nH]c(-c3ccccn3)nc2c1 [Example 22, 5-((2-chloro-6-fluorobenzyl)sulfonyl)-2-(pyridin-2-yl)-1H-benzo[d]imidazole]
1.1 | O=C(Nc1ccc(S(=O)(=O)Cc2ccccc2Cl)cc1)c1cccc(Cl)n1 [Example 30, 6-chloro-N-(4-((2-chlorobenzyl)sulfonyl)phenyl)picolinamide]
